What all share (format): cell-based
For test [1], the target named is T1, hGIPR (Homo sapiens, UniProt P48546).
T1 sequence (P48546 22-466): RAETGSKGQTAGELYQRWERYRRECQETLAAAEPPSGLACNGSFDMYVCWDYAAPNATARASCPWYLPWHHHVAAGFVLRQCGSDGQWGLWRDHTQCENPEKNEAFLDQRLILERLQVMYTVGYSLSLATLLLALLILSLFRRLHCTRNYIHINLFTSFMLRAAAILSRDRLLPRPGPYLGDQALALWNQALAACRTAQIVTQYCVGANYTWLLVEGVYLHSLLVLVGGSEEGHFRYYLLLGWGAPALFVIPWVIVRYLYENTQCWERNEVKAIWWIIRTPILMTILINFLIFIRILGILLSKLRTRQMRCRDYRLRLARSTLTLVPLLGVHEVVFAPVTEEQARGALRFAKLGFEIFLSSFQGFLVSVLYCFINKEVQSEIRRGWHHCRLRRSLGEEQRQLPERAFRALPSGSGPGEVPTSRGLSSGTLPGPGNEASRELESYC
The experiment in a line: Functional cAMP activation in the presence of 0.1% casein (no HSA). Particulars: read-out: Relative cAMP EC50, hGIPR.

Test [2] addresses T2, hGLP-1R (Homo sapiens, UniProt P43220). The test is described as above. The note with it: read-out: Relative cAMP EC50, hGLP-1R.
The next test concerns the target hGcgR (Homo sapiens, UniProt P47871). Described as above. Particulars: read-out: Relative cAMP EC50, hGcgR.
A further test addresses human GcgR (Homo sapiens, UniProt P47871). As to the kind of experiment: Functional cAMP activity in the presence of 1% HSA. Particulars: read-out: cAMP Rel EC50, hGcgR.
Test [3] has as its target T1, hGIPR. The experiment in a line: Functional cAMP activity in the presence of 1% HSA. The note with it: read-out: cAMP Rel EC50, hGIPR.
Test [4] has as its target T2, hGLP-1R. The experiment in a line: Functional cAMP activity in the presence of 1% HSA. Particulars: read-out: cAMP Rel EC50, hGLP-1R.
Where [5] appears, read: in the presence of 0.1% casein (no HSA), geometric mean.
Setting [6] is: in the presence of 0.1% casein (no HSA), geometric mean of relative EC50.
The mark [7] stands for this setting: HEK-293 clonal cell line, 1% HSA, geometric mean of relative EC50.

Like-named read-outs stand apart in the source and are kept apart here. Starred links: 1 amine or outer side, 2 acyl side, 3 side chain; linkers in the order of their positions; H or OH if unused. Non-standard residues stand in square brackets, D forms with d. Residues, ends and D or L forms follow the SMILES beside them. Groups on a side chain read outwards from the residue. No end group written: not given here. *: point of attachment. C20 diacid = O=C(O)CCCCCCCCCCCCCCCCCCC(=O)*; C18 diacid = O=C(O)CCCCCCCCCCCCCCCCC(=O)*; αMePhe(2-F) = C[C@](N)(Cc1ccccc1F)C(=O)O; γGlu = O=C(O)[C@H](CCC(=O)[*:2])N[*:1]; αMe4Pal = C[C@](N)(Cc1ccncc1)C(=O)O; αMeY = C[C@](N)(Cc1ccc(O)cc1)C(=O)O; αMeF = C[C@](N)(Cc1ccccc1)C(=O)O; 4Pal = N[C@@H](Cc1ccncc1)C(=O)O; αMeL = CC(C)C[C@](C)(N)C(=O)O; αMeS = C[C@](N)(CO)C(=O)O; Orn = NCCC[C@H](N)C(=O)O; AEEA = NCCOCCOCC(=O)O; Aib = CC(C)(N)C(=O)O
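For Relative cAMP EC50, hGIPR in this document: intracellular cAMP rise after 30 min at 37 °C read by HTRF against a standard curve, scaled between buffer alone (0%) and top control ligand concentration (100%), four-parameter fit.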
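For Relative cAMP EC50, hGLP-1R in this document: intracellular cAMP rise after 30 min at 37 °C read by HTRF, normalized between buffer only (0%) and maximal control ligand (100%), four-parameter variable-slope fit.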
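For Relative cAMP EC50, hGcgR in this document: intracellular cAMP rise after 30 min at 37 °C, read by HTRF against a cAMP standard curve, scaled from buffer only (0%) to maximal control ligand response (100%).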

T2 sequence (P43220 24-463): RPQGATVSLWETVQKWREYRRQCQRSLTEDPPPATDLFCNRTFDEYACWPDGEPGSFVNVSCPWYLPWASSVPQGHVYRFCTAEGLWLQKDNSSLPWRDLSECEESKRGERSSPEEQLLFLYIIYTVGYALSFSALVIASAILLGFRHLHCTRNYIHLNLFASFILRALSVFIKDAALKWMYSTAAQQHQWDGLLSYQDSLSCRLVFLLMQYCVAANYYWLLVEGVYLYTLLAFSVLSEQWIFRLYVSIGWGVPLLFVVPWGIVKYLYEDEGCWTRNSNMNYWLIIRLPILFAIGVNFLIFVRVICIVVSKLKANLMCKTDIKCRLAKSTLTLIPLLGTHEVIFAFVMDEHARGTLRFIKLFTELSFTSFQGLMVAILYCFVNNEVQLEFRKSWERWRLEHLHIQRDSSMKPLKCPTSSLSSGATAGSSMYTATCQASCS
human GcgR, sequence (P47871 26-477): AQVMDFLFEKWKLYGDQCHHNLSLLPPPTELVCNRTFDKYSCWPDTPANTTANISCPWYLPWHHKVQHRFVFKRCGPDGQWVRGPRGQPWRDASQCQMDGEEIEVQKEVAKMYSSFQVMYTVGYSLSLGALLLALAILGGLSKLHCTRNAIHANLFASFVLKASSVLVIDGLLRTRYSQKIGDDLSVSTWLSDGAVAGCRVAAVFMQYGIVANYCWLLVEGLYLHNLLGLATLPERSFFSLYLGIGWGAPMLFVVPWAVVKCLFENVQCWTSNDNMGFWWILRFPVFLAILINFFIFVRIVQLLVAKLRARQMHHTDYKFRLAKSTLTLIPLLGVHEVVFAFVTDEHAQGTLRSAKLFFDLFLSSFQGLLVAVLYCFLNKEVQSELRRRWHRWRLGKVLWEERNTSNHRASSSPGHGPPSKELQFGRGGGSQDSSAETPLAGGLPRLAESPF
hGcgR, sequence (P47871 26-477): as above

In general, EC50 refers to the concentration needed to bring the measured effect to its halfway point. With “H-Y[Aib]QGTFTSDFS[Orn][αMeL]LDKK([AEEA-γGlu-C18 diacid])AQ[Aib]AFIEWLLEGGHSSGAPPPSGS-NH2 [Example 170]”, the EC50 is 0.401 nM on hGIPR [1] (setting [5]); 4.11 nM on hGLP-1R [2] (setting [5]); 5.29 nM on hGcgR (setting [5]); 1800 nM at human GcgR; 43.5 nM on hGIPR [3]; 361 nM on hGLP-1R [4].

As to “H-Y[Aib]QGT[αMePhe(2-F)]TSD[4Pal]SILLDKK([γGlu-γGlu-C18 diacid])AQ[Aib]AFIEYLEEGGPSSGAPPPSGAGE-NH2 [Example 620]”, the EC50 at hGIPR [1] worked out at 0.0706 nM; at hGLP-1R [2] it was 0.981 nM; at hGcgR, 8.26 nM; on human GcgR, 665 nM; on hGIPR [3], 5.96 nM; on hGLP-1R [4], 90.7 nM.

With “H-Y[Aib]QGTFTSD[4Pal]SQ[αMeL]LD[Orn]K([γGlu-γGlu-C18 diacid])AQ[αMe4Pal]AFIEYLIAGGPSSGEPPPSGSE [Example 977]”, the EC50 at hGIPR [1] (setting [5]) was 0.189 nM; on hGLP-1R [2] (setting [5]), 1.1 nM; at hGcgR (setting [5]), 7.18 nM; at human GcgR, 839 nM; at hGIPR [3] it was 23 nM; at hGLP-1R [4], 159 nM.

Turning to “H-Y[Aib]QGTFTSD[4Pal]SQ[αMeL]LDKK([AEEA-γGlu-C18 diacid])AQ[αMe4Pal]AFIEWLIEGGPSSGAPPPSGS-NH2 [Example 830]”, the EC50 at hGIPR [1] (setting [5]) was found to be 0.132 nM; at hGLP-1R [2] (setting [5]) it was 0.791 nM; at hGcgR (setting [5]) it was 3.21 nM; on human GcgR, 809 nM; at hGIPR [3], 44.8 nM; at hGLP-1R [4] it was 180 nM.

For “H-Y[Aib]QGTFTSDFS[Orn][αMeL]LDKK([AEEA-γGlu-C20 diacid])AQ[Aib]AFIEYLLAGGTSSGEPPPSGE-NH2 [Example 106]”, the EC50 at hGIPR [1] (setting [5]) stood at 0.345 nM; at hGLP-1R [2] (setting [5]), 3.94 nM; at hGcgR (setting [5]), 6.26 nM; on human GcgR, 2000 nM; on hGIPR [3] it was 91 nM; on hGLP-1R [4], 977 nM.

As to “H-Y[Aib]QGT[αMeF]TSD[4Pal][αMeS]I[αMeL]LD[Orn]K([AEEA-γGlu-C18 diacid])AQ[αMe4Pal]EFI[dE][αMeY]LIEGGPSSGEPPPSGSE-NH2 [Example 1167]”, the EC50 was 0.011 nM on hGIPR [1] (setting [5]); 0.636 nM at hGLP-1R [2] (setting [5]); 2.16 nM on hGcgR (setting [5]); 274 nM on human GcgR; 1.22 nM at hGIPR [3]; 89.2 nM on hGLP-1R [4].

For the compound “H-Y[Aib]QGT[αMePhe(2-F)]TSD[4Pal][αMeS]I[αMeL]LD[Orn]K([AEEA-γGlu-C18 diacid])AQ[Aib][Orn]FI[dE]YLIEGGPSSGEPPPSGTE-NH2 [Example 501]”, the EC50 was determined as 0.0373 nM on hGIPR [1]; 0.401 nM at hGLP-1R [2]; 4.54 nM at hGcgR; 455 nM on human GcgR; 2.32 nM at hGIPR [3]; 38 nM at hGLP-1R [4].

With “H-Y[Aib]QGT[αMePhe(2-F)]TSD[4Pal][αMeS]I[αMeL]LD[Orn]K([γGlu-γGlu-C18 diacid])AQ[Aib]NFI[dE][αMeY]LIEGGPSSGEPEPSEG-NH2 [Example 473]”, the EC50 at hGIPR [1] was 0.0101 nM; at hGLP-1R [2], 0.173 nM; on hGcgR, 2.72 nM; on human GcgR, 311 nM; at hGIPR [3], 1.11 nM; on hGLP-1R [4] it was 11.4 nM.

For the compound “H-Y[Aib]QGTFTSD[4Pal]SQ[αMeL]LDKK([AEEA-γGlu-C18 diacid])AQ[αMe4Pal]AFIEYLLAGGPSSGAPPPSGSEE-NH2 [Example 1037]”, the half-maximal effective concentration (EC50) on hGIPR [1] (setting [5]) is 0.221 nM; at hGLP-1R [2] (setting [5]), 5.95 nM; on hGcgR (setting [5]), 3.31 nM; at human GcgR, 291 nM; at hGIPR [3], 13.7 nM; at hGLP-1R [4] it was 625 nM.

For the compound “H-Y[Aib]QGTFTSDFSK[αMeL]LDKK([AEEA-γGlu-C18 diacid])AQ[Aib]AFIEYLIE[Aib]GESSGAPPPSGS-NH2 [Example 216]”, the EC50 on hGIPR [1] (setting [5]) was 0.0887 nM; at hGLP-1R [2] (setting [5]), 0.52 nM; at hGcgR (setting [5]), 2.7 nM; on human GcgR, 895 nM; at hGIPR [3], 12 nM; on hGLP-1R [4], 90.6 nM.

For “H-Y[Aib]QGT[αMePhe(2-F)]TSD[4Pal]SI[αMeL]LD[Orn]K([AEEA-γGlu-C18 diacid])AQ[αMe4Pal][Orn]FI[dE][αMeY]LEEGGPSSGEPPPEGT-NH2 [Example 506]”, the half-maximal effective concentration (EC50) was found to be 0.308 nM on hGIPR [1]; 2.14 nM at hGLP-1R [2]; 17.1 nM at hGcgR; 2330 nM at human GcgR; 28.7 nM at hGIPR [3]; 224 nM on hGLP-1R [4].

For “H-Y[Aib]QGT[αMePhe(2-F)]TSD[4Pal]SI[αMeL]LDKK([γGlu-γGlu-C18 diacid])AQ[Aib][Orn]FIEYLTEGGPSSGEPPPSGSEE-NH2 [Example 638]”, the EC50 is 0.0354 nM on hGIPR [1] (setting [6]); 0.4 nM at hGLP-1R [2] (setting [6]); 14 nM at hGcgR (setting [6]); 1090 nM at human GcgR (setting [7]); 2.39 nM on hGIPR [3] (setting [7]); 36 nM on hGLP-1R [4] (setting [7]).

With “H-Y[Aib]QGTFTSDFSK[αMeL]LDKK([AEEA-γGlu-C20 diacid])AQ[Aib]AFIEWLLAGGPSSGEPPPSEG-NH2 [Example 20]”, the EC50 is 0.381 nM at hGIPR [1] (setting [5]); 2.45 nM at hGLP-1R [2] (setting [5]); 15.4 nM at hGcgR (setting [5]); 587 nM on human GcgR; 42.3 nM on hGIPR [3]; 326 nM on hGLP-1R [4].

As for “H-Y[Aib]QGTFTSDYSI[αMeL]LDKQAAK([AEEA-AEEA-γGlu-C20 diacid])QFVEWLLA[Aib]GPSSGAPPPSEG-NH2 [Example 327]”, the EC50 was 0.312 nM on hGIPR [1] (setting [5]); 1.61 nM on hGLP-1R [2] (setting [5]); 3.04 nM at hGcgR (setting [5]); 1400 nM at human GcgR; 63.3 nM at hGIPR [3]; 473 nM at hGLP-1R [4].

Take `CC[C@H](C)[C@H](NC(=O)[C@H](Cc1ccccc1)NC(=O)[C@H](C)NC(=O)C(C)(C)NC(=O)[C@H](CCC(N)=O)NC(=O)[C@H](C)NC(=O)[C@H](CCCCNC(=O)COCCOCCNC(=O)CC[C@H](NC(=O)CCCCCCCCCCCCCCCCC(=O)O)C(=O)O)NC(=O)[C@H](CCCCN)NC(=O)[C@H](CC(=O)O)NC(=O)[C@H](CC(C)C)NC(=O)[C@H](CC(C)C)NC(=O)[C@@H](NC(=O)[C@](C)(CO)NC(=O)[C@H](Cc1ccncc1)NC(=O)[C@H](CC(=O)O)NC(=O)[C@H](CO)NC(=O)[C@@H](NC(=O)[C@](C)(Cc1ccccc1F)NC(=O)[C@@H](NC(=O)CNC(=O)[C@H](CCC(N)=O)NC(=O)C(C)(C)NC(=O)[C@@H](N)Cc1ccc(O)cc1)[C@@H](C)O)[C@@H](C)O)[C@@H](C)CC)C(=O)N[C@@H](CCC(=O)O)C(=O)N[C@@H](Cc1ccc(O)cc1)C(=O)N[C@@H](CC(C)C)C(=O)N[C@@H](CCC(=O)O)C(=O)N[C@@H](CCC(=O)O)C(=O)NCC(=O)NCC(=O)N1CCC[C@H]1C(=O)N[C@@H](CO)C(=O)N[C@@H](CO)C(=O)NCC(=O)N[C@@H](C)C(=O)N1CCC[C@H]1C(=O)N1CCC[C@H]1C(=O)N1CCC[C@H]1C(=O)N[C@@H](CCC(=O)O)C(N)=O` [Example 464] (H-Y[Aib]QGT[αMePhe(2-F)]TSD[4Pal][αMeS]ILLDKK([AEEA-γGlu-C18 diacid])AQ[Aib]AFIEYLEEGGPSSGAPPPE-NH2): the EC50 on hGIPR [1] was found to be 0.072 nM; at hGLP-1R [2] it was 0.466 nM; at hGcgR, 1.25 nM; on human GcgR, 194 nM; at hGIPR [3], 19.9 nM; on hGLP-1R [4] it was 45.5 nM.
